Measurements: the supplement of paper PMC10307832

What was measured:
Test in all cases: relative viability (nuclei count vs DMSO), 5 days (fraction); higher = more cells survive
NCI-H1793 = tested on: NCI-H1793
Summary of the method: (§1)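 Relative viability was taken as the ratio of nuclei in treated wells to nuclei in vehicle wells. Lung cancer cell lines in 1536-well plates received compounds by pin tool one day after seeding, either one drug alone or a fixed anchor-drug dose plus five library-drug doses (not always all listed) in √10 steps. Nuclei were counted on 4× images after 5 days of treatment, and values are medians of duplicate plates.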

NCI-H2405 = tested on: NCI-H2405
Summary of the method: as §1

NCI-H2023 = tested on: NCI-H2023
Summary of the method: as §1

NCI-H647 = tested on: NCI-H647
Summary of the method: as §1

NCI-H1563 = tested on: NCI-H1563
Summary of the method: as §1

NCI-H520 = tested on: NCI-H520
Summary of the method: as §1

PC-14 = tested on: PC-14
Summary of the method: as §1

NCI-H1734 = tested on: NCI-H1734
Summary of the method: as §1

COR-L23 = tested on: COR-L23
Summary of the method: as §1

NCI-H3122 = tested on: NCI-H3122
Summary of the method: as §1

EPLC-272H = tested on: EPLC-272H
Summary of the method: as §1

RERF-LC-KJ = tested on: RERF-LC-KJ
Summary of the method: as §1

ABC-1 = tested on: ABC-1
Summary of the method: as §1

HCC-44 = tested on: HCC-44
Summary of the method: as §1

NCI-H1993 = tested on: NCI-H1993
Summary of the method: as §1

EKVX = tested on: EKVX
Summary of the method: as §1

LOU-NH91 = tested on: LOU-NH91
Summary of the method: as §1

NCI-H2347 = tested on: NCI-H2347
Summary of the method: as §1

201T = tested on: 201T
Summary of the method: as §1

NCI-H2085 = tested on: NCI-H2085
Summary of the method: as §1

NCI-H441 = tested on: NCI-H441
Summary of the method: as §1

## C[C@@H]1CN(CC(=O)Nc2ccc3c(c2)Cc2cccc(-c4cc(=O)cc(N5CCOCC5)o4)c2S3)C[C@H](C)O1 + C[C@]1(O)C[C@@H](c2nc(-c3ccc4ccc(-c5ccccc5)nc4c3)c3c(N)nccn32)C1 [Linsitinib] (partner 1 µM)
NCI-H1793; first compound 0.04 µM
  relative viability: 1.02
NCI-H1793; first compound 0.1265 µM
  relative viability: 0.695
NCI-H1793; first compound 0.4 µM
  relative viability: 0.779
NCI-H1793; first compound 4 µM
  relative viability: 0.445
NCI-H2405; first compound 0.04 µM
  relative viability: 0.896
NCI-H2405; first compound 0.1265 µM
  relative viability: 1.04
NCI-H2405; first compound 0.4 µM
  relative viability: 0.832
NCI-H2405; first compound 4 µM
  relative viability: 0.881
NCI-H2023; first compound 0.04 µM
  relative viability: 0.751
NCI-H2023; first compound 0.1265 µM
  relative viability: 0.669
NCI-H2023; first compound 0.4 µM
  relative viability: 0.433
NCI-H2023; first compound 4 µM
  relative viability: 0.496
NCI-H647; first compound 0.04 µM
  relative viability: 1.28
NCI-H647; first compound 0.1265 µM
  relative viability: 1.12
NCI-H647; first compound 0.4 µM
  relative viability: 0.926
NCI-H647; first compound 4 µM
  relative viability: 0.76
NCI-H1563; first compound 0.04 µM
  relative viability: 1.17
NCI-H1563; first compound 0.1265 µM
  relative viability: 1.28
NCI-H1563; first compound 0.4 µM
  relative viability: 0.988
NCI-H1563; first compound 4 µM
  relative viability: 1.1
NCI-H520; first compound 0.04 µM
  relative viability: 1.1
NCI-H520; first compound 0.1265 µM
  relative viability: 0.83
NCI-H520; first compound 0.4 µM
  relative viability: 0.748
NCI-H520; first compound 4 µM
  relative viability: 0.837
PC-14; first compound 0.04 µM
  relative viability: 0.963
PC-14; first compound 0.1265 µM
  relative viability: 0.902
PC-14; first compound 0.4 µM
  relative viability: 0.937
PC-14; first compound 4 µM
  relative viability: 0.754
NCI-H1734; first compound 0.04 µM
  relative viability: 1.01
NCI-H1734; first compound 0.1265 µM
  relative viability: 0.85
NCI-H1734; first compound 0.4 µM
  relative viability: 0.801
NCI-H1734; first compound 4 µM
  relative viability: 0.92
COR-L23; first compound 0.04 µM
  relative viability: 0.97
COR-L23; first compound 0.1265 µM
  relative viability: 0.878
COR-L23; first compound 0.4 µM
  relative viability: 0.936
COR-L23; first compound 4 µM
  relative viability: 0.796
NCI-H3122; first compound 0.04 µM
  relative viability: 1.07
NCI-H3122; first compound 0.1265 µM
  relative viability: 0.933
NCI-H3122; first compound 0.4 µM
  relative viability: 1.02
NCI-H3122; first compound 4 µM
  relative viability: 0.99
EPLC-272H; first compound 0.04 µM
  relative viability: 1.24
EPLC-272H; first compound 0.1265 µM
  relative viability: 1.12
EPLC-272H; first compound 0.4 µM
  relative viability: 1.17
EPLC-272H; first compound 4 µM
  relative viability: 1.36
RERF-LC-KJ; first compound 0.04 µM
  relative viability: 0.922
RERF-LC-KJ; first compound 0.1265 µM
  relative viability: 0.907
RERF-LC-KJ; first compound 0.4 µM
  relative viability: 0.91
RERF-LC-KJ; first compound 4 µM
  relative viability: 0.774
ABC-1; first compound 0.1265 µM
  relative viability: 0.781
ABC-1; first compound 0.4 µM
  relative viability: 0.769
ABC-1; first compound 4 µM
  relative viability: 0.673
HCC-44; first compound 0.04 µM
  relative viability: 0.636
HCC-44; first compound 0.1265 µM
  relative viability: 0.683
HCC-44; first compound 0.4 µM
  relative viability: 0.537
HCC-44; first compound 4 µM
  relative viability: 0.632
NCI-H1993; first compound 0.04 µM
  relative viability: 0.716
NCI-H1993; first compound 0.1265 µM
  relative viability: 0.733
NCI-H1993; first compound 0.4 µM
  relative viability: 0.848
NCI-H1993; first compound 4 µM
  relative viability: 0.805
EKVX; first compound 0.04 µM
  relative viability: 0.954
EKVX; first compound 0.1265 µM
  relative viability: 0.982
EKVX; first compound 0.4 µM
  relative viability: 0.963
EKVX; first compound 4 µM
  relative viability: 0.972
LOU-NH91; first compound 0.04 µM
  relative viability: 1.02
LOU-NH91; first compound 0.1265 µM
  relative viability: 0.956
LOU-NH91; first compound 0.4 µM
  relative viability: 0.906
LOU-NH91; first compound 4 µM
  relative viability: 0.93
NCI-H2347; first compound 0.04 µM
  relative viability: 0.883
NCI-H2347; first compound 0.1265 µM
  relative viability: 1.05
NCI-H2347; first compound 0.4 µM
  relative viability: 1.01
NCI-H2347; first compound 4 µM
  relative viability: 1.02
201T; first compound 0.04 µM
  relative viability: 1.09
201T; first compound 0.1265 µM
  relative viability: 1.01
201T; first compound 0.4 µM
  relative viability: 1.01
201T; first compound 4 µM
  relative viability: 1.01
NCI-H2085; first compound 0.04 µM
  relative viability: 0.992
NCI-H2085; first compound 0.1265 µM
  relative viability: 0.803
NCI-H2085; first compound 0.4 µM
  relative viability: 0.827
NCI-H2085; first compound 4 µM
  relative viability: 0.724
NCI-H441; first compound 0.04 µM
  relative viability: 0.404
NCI-H441; first compound 0.1265 µM
  relative viability: 0.573
NCI-H441; first compound 0.4 µM
  relative viability: 0.536
NCI-H441; first compound 4 µM
  relative viability: 0.433
